Measured values from PubChem BioAssay (NCI).
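Here, GI50 denotes the concentration required for 50% inhibition of growth. TGI: total growth inhibition.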

Key:
Assay in all cases: growth of human tumour cells (NCI), 384-well format
[1] = tested on: 786-0 renal
[2] = tested on: A498 renal
[3] = tested on: A549 NSCLC
[4] = tested on: ACHN renal
[5] = tested on: BT-549 breast
[6] = tested on: CCRF-CEM leukemia
[7] = tested on: COLO 205 colon
[8] = tested on: EKVX NSCLC
[9] = tested on: HCT-116 colon
[10] = tested on: HCT-15 colon
[11] = tested on: HOP-92 NSCLC
[12] = tested on: HS 578T breast
[13] = tested on: HT29 colon
[14] = tested on: IGROV1 ovarian
[15] = tested on: K-562 leukemia
[16] = tested on: KM12 colon
[17] = tested on: LOX IMVI melanoma
[18] = tested on: M14 melanoma
[19] = tested on: MALME-3M melanoma
[20] = tested on: MCF7 breast
[21] = tested on: MDA-MB-231 breast
[22] = tested on: MDA-MB-435 melanoma
[23] = tested on: MDA-MB-468 breast
[24] = tested on: MOLT-4 leukemia
[25] = tested on: NCI-H226 lung
[26] = tested on: NCI-H522 lung
[27] = tested on: OVCAR-3 ovarian
[28] = tested on: OVCAR-4 ovarian
[29] = tested on: OVCAR-5 ovarian
[30] = tested on: OVCAR-8 ovarian
[31] = tested on: PC-3 prostate
[32] = tested on: RPMI-8226 leukemia
[33] = tested on: SF-268 CNS
[34] = tested on: SF-295 CNS
[35] = tested on: SK-MEL-2 melanoma
[36] = tested on: SK-MEL-28 melanoma
[37] = tested on: SK-MEL-5 melanoma
[38] = tested on: SK-OV-3 ovarian
[39] = tested on: SN12C renal
[40] = tested on: SNB-19 CNS
[41] = tested on: SR leukemia
[42] = tested on: T-47D breast
[43] = tested on: TK-10 renal
[44] = tested on: U251 glioblastoma
[45] = tested on: UACC-257 melanoma
[46] = tested on: UACC-62 melanoma
[47] = tested on: UO-31 renal

Work on `O=C1Nc2ccc(I)cc2/C1=C/c1cc(Br)c(O)c(Br)c1` yielded a GI50 [1] of 13.9 µM, a TGI [1] of 27.4 µM and a GI50 [2] of 16 µM. It also gave a TGI [2] of 30.7 µM, a GI50 [3] of 17.2 µM and a TGI [3] of 46 µM. For the same compound, the GI50 [4] was 15.7 µM, the TGI [4] was 35.7 µM and the GI50 [5] was 11.7 µM. For the same compound, the TGI [5] was 26.8 µM, the GI50 [6] was 11.3 µM and the TGI [6] was 23.4 µM. The GI50 [7] was 10.2 µM, the TGI [7] was 23.5 µM and the GI50 [8] was 14.3 µM. The TGI [8] was 30.2 µM, the GI50 [9] was 16.3 µM and the TGI [9] was 30.4 µM. For the same compound, the GI50 [10] was 15.7 µM, the TGI [10] was 30.6 µM and the GI50 [11] was 15.6 µM. For the same compound, the TGI [11] was 31.9 µM, the GI50 [12] was 14.4 µM and the TGI [12] was 28.5 µM. The GI50 [13] was 14.1 µM, the TGI [13] was 31.1 µM and the GI50 [14] was 18.6 µM. The TGI [14] was 41 µM, the GI50 [15] was 17 µM and the TGI [15] was 31.1 µM. The GI50 [16] was 12.5 µM, the TGI [16] was 27.6 µM and the GI50 [17] was 13 µM. It also gave a TGI [17] of 29.4 µM, a GI50 [18] of 4.38 µM and a TGI [18] of 18.6 µM. The GI50 [19] was 4.43 µM, the TGI [19] was 20.8 µM and the GI50 [20] was 10.1 µM. For the same compound, the TGI [20] was 25.3 µM, the GI50 [21] was 14 µM and the TGI [21] was 31.7 µM. It also gave a GI50 [22] of 8.13 µM, a TGI [22] of 29.1 µM and a GI50 [23] of 11.7 µM. It also gave a TGI [23] of 25.2 µM, a GI50 [24] of 13.4 µM and a TGI [24] of 26.2 µM. For the same compound, the GI50 [25] was 27.2 µM, the TGI [25] was 68.5 µM and the GI50 [26] was 13.2 µM. The TGI [26] was 26.1 µM, the GI50 [27] was 6.34 µM and the TGI [27] was 19.2 µM. It also gave a GI50 [28] of 19.1 µM, a TGI [28] of 47.1 µM and a GI50 [29] of 25.1 µM. The TGI [29] was 65 µM, the GI50 [30] was 17.2 µM and the TGI [30] was 37.4 µM. The GI50 [31] was 13.6 µM, the TGI [31] was 27.1 µM and the GI50 [32] was 6.64 µM. For the same compound, the TGI [32] was 19.2 µM, the GI50 [33] was 16.3 µM and the TGI [33] was 52 µM. For the same compound, the GI50 [34] was 11.9 µM, the TGI [34] was 34.2 µM and the GI50 [35] was 15.4 µM. It also gave a TGI [35] of 30.7 µM, a GI50 [36] of 6.3 µM and a TGI [36] of 34.8 µM. It also gave a GI50 [37] of 12.3 µM, a TGI [37] of 24.8 µM and a GI50 [38] of 16.2 µM. The TGI [38] was 34.8 µM, the GI50 [39] was 21.6 µM and the TGI [39] was 48.5 µM. It also gave a GI50 [40] of 21.4 µM, a TGI [40] of 56.3 µM and a GI50 [41] of 6.31 µM. The TGI [41] was 18.8 µM, the GI50 [42] was 12.8 µM and the TGI [42] was 30 µM. The GI50 [43] was 21.6 µM, the TGI [43] was 78.1 µM and the GI50 [44] was 11.7 µM. The TGI [44] was 24.3 µM, the GI50 [45] was 14.9 µM and the TGI [45] was 33.3 µM. It also gave a GI50 [46] of 7.69 µM, a TGI [46] of 21 µM and a GI50 [47] of 13.1 µM. The TGI [47] was 28.2 µM.
